# Test results taken from PMC8623418, “Novel Multitarget Hydroxamic Acids with a Natural Origin CAP Group against Alzheimer’s Disease: Synthesis, Docking and Biological Evaluation” (Pharmaceutics, 2021).
# Experiments:
# [1] = DPPH test of antiradical activity; details: substances at 100 μM, mean ± SEM
# Protocol: The DPPH test was used to examine antiradical activity based on the ability of a stable chromogen radical of 2,2-diphenyl-1-picrylhydrazyl (DPPH) to remove a hydrogen atom, which is accompanied by a change in the absorption maximum in the electronic absorption spectra. The amount of reduced DPPH was measured using a Cytation ™ 3 multifunctional plate analyzer (BioTek Instruments, Inc., Winooski, VT, USA) at a wavelength of 517 nm.
# The antiradical activity of the test compounds was evaluated by the DPPH test, based on the ability of antioxidants to donate an electron to the stable chromogen radical DPPH, converting it into a nonradical form and neutralizing its activity. […] The chromogenic free radical DPPH used in this test has a large size, and substances even with a similar chemical structure may have different antiradical properties due to spatially difficult access.
# HEK 293 cells = assay: MTT cell viability, HEK 293; format: cell-based; details: Homo sapiens, HEK293; HEK-293, MTT test
# Protocol: The effect of the hydroxamic acids on the viability of cells obtained from human embryonic kidneys, HEK 293, as well as the native form of human neuroblastoma, SH-SY5Y, was evaluated in the MTT test. Using a multifunctional flatbed analyzer, Cytation™3 (BioTek Instruments, Inc., Winooski, VT, USA), the optical density was determined at a wavelength of 530 nm. Based on the dose-dependent curves, the concentration values leading to 50% inhibition of cell population growth (IC50) were calculated.
# Due to the fact that most compounds of the class of hydroxamic acids have high cytotoxic activity and are mainly used as anticancer drugs, their use as neuroprotective drugs is limited. Since the goal of our work was to search for agents for the pharmacological correction of neurodegenerative diseases, a necessary part of the biological activity study of the synthesized hydroxamic acids was to determine their effect on the survival of cell cultures. In our work, we used neuron-like neuroblastoma cells SH-SY5Y and a healthy cell line isolated from the human embryonic kidney, HEK 293.
# 5xFAD transgenic mice [2] = assay: Novel Object Recognition Test in 5xFAD mice; format: in vivo; details: 15 mg/kg i.p. for 20 days, testing trial 24 h after familiarization
# Protocol: All animal procedures were approved by the Animal Care and Use Committee of IPAC RAS. For in vivo studies, 11-month-old male mice of the 5xFAD line (Tg(APPSwFlLon,PSEN1*M146L*L286V) 6799Vas/J) were used. The animals were housed in cages with free access to water and food in a room with a 12 h/12 h light–dark cycle, at a temperature of 23 ± 1 °C and humidity of 50 ± 5%. Before the series of experiments, animals were randomly divided into four groups (n = 8 per group): (1) wild-type group (C57BL6/j mouse line); (2) 5xFAD group; (3) 5xFAD + 15 group; and (4) 5xFAD + 25 group.
# Both compounds 15 and 25 were dissolved in saline solution and DMSO (10%) immediately before use and intraperitoneally administered to animals for 20 days at a dose of 15 mg/kg body weight for experiments. In the control group, the vehicle solution (saline and DMSO (10%), intraperitoneal) was administered with the same time schedule.
# The Novel Object Recognition Test assesses a mouse’s ability to remember if it has previously encountered an object or not. The same box that had been used in the open field test was used for the Novel Object Recognition Test. Mice were habituated to the box one day before the test, during the open field test. […] All trials were videotaped and analyzed with a computer-operated EthoVision XT system (Noldus, Wageningen, the Netherlands). […]
# 5xFAD transgenic mice [3] = assay: Morris Water Maze Test in 5xFAD mice; format: in vivo; details: for Mean latency time to hidden platform, first training day / Mean latency time to hidden platform, fourth training day: 15 mg/kg i.p. for 20 days, mean ± SEM; for Mean latency time to hidden platform, first training day: day 1; for Mean latency time to hidden platform, fourth training day: day 4
# Protocol: All animal procedures were approved by the Animal Care and Use Committee of IPAC RAS. For in vivo studies, 11-month-old male mice of the 5xFAD line (Tg(APPSwFlLon,PSEN1*M146L*L286V) 6799Vas/J) were used. The animals were housed in cages with free access to water and food in a room with a 12 h/12 h light–dark cycle, at a temperature of 23 ± 1 °C and humidity of 50 ± 5%. Before the series of experiments, animals were randomly divided into four groups (n = 8 per group): (1) wild-type group (C57BL6/j mouse line); (2) 5xFAD group; (3) 5xFAD + 15 group; and (4) 5xFAD + 25 group. Both compounds 15 and 25 were dissolved in saline solution and DMSO (10%) immediately before use and intraperitoneally administered to animals for 20 days at a dose of 15 mg/kg body weight for experiments. In the control group, the vehicle solution (saline and DMSO (10%), intraperitoneal) was administered with the same time schedule. The Morris Water Maze Test was performed based on the Morris paradigm, 1985, modified. This test allowed us to evaluate spatial learning and memory formation in mice. The experimental apparatus consisted of a circular pool (diameter, 150 cm; height, 60 cm; OpenScience, Russia) containing water at 22 ± 1 °C. The lighting conditions were as follows: dark side of the pool was 50 lx; bright side was 75 lx. The pool was equally divided into quadrants. A platform (diameter, 10 cm) was positioned inside the reservoir, placed 1 cm below the water surface in the target quadrant of the maze. The platform and pool were white with anti-glare coating, which, together with shadowless lamp lighting, created the effect of an invisible platform that was hidden under the water. As visual cues, we used 4 figures (OpenScience, Moscow, Russia) fixed on the racks and located at the pool sides. The test is based on two phases: the acquisition phase (training days) and the retention phase (probe trial) (Figure 7A). Initially, the training session was performed, during which each animal was placed into the water facing the pool wall. After placing, each animal was given 60 s to find and mount onto the hidden platform. […] Each mouse received training sessions, and the test was repeated four times for four consecutive days in acquisition training (sum 16 trials for training). All 4 start positions for each day (north, south, east, west) were deliberately randomized. The probe trial was performed on the 5th day after the training phase: there were no platform and the mice were given 90 s for swimming. The criteria for the effectiveness of learning and memory formation were the time spent in the target and wrong quadrants, the latency period, and the number of entries to the platform area.
# [4] = 5th day, versus untreated 5xFAD
SMILES,"% of Activity, Antiradical Activity [1] [%]",IC50 (HEK 293 cells) [µM],Novel object preference (episodic memory) (5xFAD transgenic mice [2]),"Mean latency time to hidden platform, first training day (5xFAD transgenic mice [3]) [s]","Mean latency time to hidden platform, fourth training day (5xFAD transgenic mice [3]) [s]",Probe trial: entries to the platform zone (5xFAD transgenic mice [3]; [4]),Probe trial: latency for entering the platform zone (5xFAD transgenic mice [3]; [4]),Probe trial: time spent in the wrong quadrant (5xFAD transgenic mice [3]; [4]),"Platform search strategies (egocentric to allocentric navigation) (5xFAD transgenic mice [3]; training phase, 15 mg/kg i.p.)"
"O=C(/C=C/c1ccc(C(=O)NO)cc1)NC1C2CC3CC(C2)CC1C3 (stereo not shown) [compound 25, 4-((E)-3-((-Adamantan-2-yl)amino)-3-Oxoprop-1-en-1-yl)-N-Hydroxybenzamide]",43.34 ± 1.42,> 100,began to show memory impairment when presented with a new object,53.46 ± 2.75,38.63 ± 3.01,improvement in these spatial memory parameters was also observed,improvement in these spatial memory parameters was also observed,significant differences were found in the time spent in the wrong quadrant,–
"O=C(CCCCCCC(=O)NC1C2CC3CC(C2)CC1C3)NO (stereo not shown) [compound 15, N^1-(Adamant-2-yl)-N^8-Hydroxyoctanediamide]",19.70 ± 1.34,> 100,significantly showed a strong preference and spent more time studying a new object,53.76 ± 2.79,34.28 ± 4.32,increased entries to the platform,significantly reduced the latency for entering the platform zone,–,normalization of this situation and the successful formation of the allocentric cognitive map
